Test results reported in paper PMC3017052, “A Novel Peptide Derived from Human Apolipoprotein E Is an Inhibitor of Tumor Growth and Ocular Angiogenesis” (PLoS ONE, 2011).
Read-outs that look alike come from different tables or passages of the source.

Key:
HUVEC [1] = test: Wound-healing/migration assay; format: cell-based, human; details: 50 ng/mL VEGF, apoEdp 6–100 µM, three independent experiments; read-out: IC50, inhibition of VEGF-induced HUVEC wound-healing migration
Experimental: An important angiogenic phenotype of ECs induced by VEGF is cell migration. The major aspects of VEGF action on ECs are its ability to act as a chemoattractant and to stimulate the angiogenic morphogenesis. […] Cell migration was examined after simulation of an artificial wound by perturbation of a cell monolayer using a 1-mL pipette tip. […] (Fig. 2C).
Figure 2 ApoEdp inhibits wound-healing migration in vitro. Monolayers of HUVECs were scraped and incubated in medium containing 50 ng/mL VEGF in the presence or absence of various concentrations of apoEdp. VEGF stimulated the migration of HUVECs in the scraped area. Representative photomicrographs of cells treated with (A) VEGF alone or with (B) VEGF and apoEdp together are shown. Solid lines indicate the initial scraping. […] The bar diagram is the quantitative measurement of cell migration inside the scraped area. The data shown are representative of three independent experiments. ** p<0. 01; and *** p<0.001.
To determine the effect of apoEdp on EC migration induced by VEGF, wound-healing assays were performed using HUVEC cells. Cells were allowed to grow to confluency on 6-well plates and washed twice with PBS. […] Migration of the cells into the wounded area was photographed with an Olympus U-RLF-T microscope and counted. […]

HUVEC [2] = format: cell-based, human
Excerpt: The cellular mechanisms of angiogenesis involve motility and alignment of ECs to form a capillary tube-like network on matrigel. Thus, we assessed whether or not apoEdp impaired EC differentiation in the tube formation assay as described in the Materials and Methods. The numbers of tubular structures (Fig. 3A) were quantitatively analyzed. […] “Percentage (%) of inhibition” in Fig. 3C is the mean number (± SEM) of tubules expressed as a proportion of that in the VEGF control group. ** p<0.01 and *** p<0.001.
Figure 3 ApoEdp inhibited capillary tubule formation (in vitro angiogenesis). […] Tubular structures were quantitated by manual counting under low power fields. […] (C) “Percentage (%) of inhibition” is the mean number (± SEM) of tubules expressed as a proportion of that in the VEGF control group. ** p<0.01 and *** p<0.001. […]
Matrigel (Sigma Aldrich, St Louis, MO) was thawed overnight on ice. […] After 12–16 hr, microtubule formation was assessed with an inverted photomicroscope and the images were photographed using Olympus U-RLF-T microscope. Manual counting at low power fields was used to quantitate tubular structures and percentage of inhibition was expressed using VEGF control wells as 100%.

Substance: Ac-LRKLRKRLLLRKLRKRLL-NH2 [apoEdp]
- IC50 (HUVEC [1]): ~21.5 µM
- IC50 (HUVEC [2]): 9 µM
